Experimental data taken from the Deep4Chem optical property database.
Where “and” joins values, the source holds several entries; their conditions need not be identical. Equal entries are not always repeated. One block for each compound: values may come before it.

Assay: solvent given as SMILES

Structure (SMILES): COC1(OC)C2(Cl)c3nc4cc(-c5cccs5)ccc4nc3C1(Cl)C1C[C@H]3[C@@H](CC12)C1(Cl)c2nc4cc(-c5cccs5)ccc4nc2C3(Cl)C1(OC)OC (some centres undefined)
absorption maximum (in CC#N): 366 nm
absorption maximum (in CCCCCC): 358 nm
absorption maximum (in CCOC(C)=O): 362 nm
absorption maximum (in CO): 369 nm
absorption maximum (in Cc1ccccc1): 364 nm
absorption maximum (in ClC(Cl)Cl): 368 nm
absorption maximum (in ClCCl): 369 nm

absorption maximum (in CC#N): 353 nm
Structure (SMILES): COc1ccc(C#Cc2cc3ccccc3oc2=O)cc1

absorption maximum (in ClCCl): 414 nm
Structure (SMILES): CC(C)(C)c1cc2ccc3c(N(c4ccc(F)cc4)c4ccc(F)cc4)cc(N(c4ccc(F)cc4)c4ccc(F)cc4)c4ccc(c1)c2c34

absorption maximum (in C1CCCCC1): 581 nm
absorption maximum (in CC#N): 571 nm
absorption maximum (in CCO): 577 nm
absorption maximum (in CCOC(C)=O): 573.5 nm
absorption maximum (in CO): 574.5 nm
absorption maximum (in OCC(F)(F)F): 569 nm
Structure (SMILES): Cc1ccc(C2=C3C=C(I)C(I)=[N+]3[B-](F)(F)n3c2cc(I)c3I)cc1

absorption maximum (in ClCCl): 318 nm
Structure (SMILES): CN(C)c1cc(-c2ccccc2)cc2ccccc12

absorption maximum (in ClCCl): 445 nm
Structure (SMILES): CCN(CC)c1ccc2cc(-c3nc4cc(C(=O)Nc5ccc(C)cc5[N+](=O)[O-])ccc4o3)c(=O)oc2c1

absorption maximum (in C1CCOC1): 342 nm
absorption maximum (in CCCCCC): 338 nm
absorption maximum (in CCO): 342 nm
absorption maximum (in CS(C)=O): 345 nm
Structure (SMILES): COc1ccc2cc(-c3ccc(C)cc3)c(=O)oc2c1

Structure (SMILES): CCCC1=Cc2nc1ccc1[nH]c(cc1CCC)c1nc(c(N)cc3[nH]c2cc3CCC)C(CCC)=C1
absorption maximum (in Cc1ccccc1): 710 nm

Structure (SMILES): N#Cc1ccc(-c2ccc(C3=CCCCC3)s2)s1
absorption maximum (in C1CCOC1): 366 nm
absorption maximum (in CC#N): 366 nm
absorption maximum (in CCCCCC): 366 nm
absorption maximum (in CCO): 366 nm
absorption maximum (in OCCOCCO): 366 nm
absorption maximum (in c1ccncc1): 369 nm

absorption maximum (in ClCCl): 401 nm
Structure (SMILES): COC(=O)c1[nH]c(-c2ccc(OC)cc2)c2nnc3ccc(OC)cc3c12

absorption maximum (in CO): 308 nm
absorption maximum (in O): 318 nm
Structure (SMILES): O=[N+]([O-])c1cccs1

absorption maximum (in ClCCl): 301 nm
Structure (SMILES): CCCCCCCCCCCCCCCCn1c(-c2cc(-c3nc4ccccc4n3CCCCCCCCCCCCCCCC)cc(-c3nc4ccccc4n3CCCCCCCCCCCCCCCC)c2)nc2ccccc21

absorption maximum (in ClCCl): 347 nm
Structure (SMILES): O=[N+]([O-])c1ccc(C#Cc2ccc3ccc(C#Cc4ccc([N+](=O)[O-])cc4)cc3c2)cc1

absorption maximum (in CO): 329 nm
absorption maximum (in ClCCl): 335 nm
Structure (SMILES): O=[N+]([O-])c1ccc(C#Cc2ccc([N+](=O)[O-])cc2)cc1

absorption maximum (in ClCCl): 440 nm
Structure (SMILES): c1ccc(C2=Nc3cccc4[n+]3[B-](c3ccccc3)(N2)NC(c2ccccc2)=N4)cc1

absorption maximum (in CC#N): 330 nm
Structure (SMILES): c1ccc(-c2nc3cc4c(cc3n2-c2ccccc2)nc(-c2ccccc2)n4-c2ccccc2)cc1

absorption maximum (in C1COCCO1): 304.29 nm
absorption maximum (in CC#N): 302.81 nm
absorption maximum (in O): 305 nm
Structure (SMILES): N#Cc1cccc2[nH]ccc12

absorption maximum (in C1COCCO1): 392 nm
absorption maximum (in CC#N): 392 nm
absorption maximum (in CCCCCCC): 383 nm
absorption maximum (in CO): 394 nm
Structure (SMILES): CN(C)c1ccc(/C=C/C=C/c2ccncc2)cc1

absorption maximum (in C1CCOC1): 324 nm
Structure (SMILES): C1=Cc2ccccc2C(=Cc2ccc(-c3cc(-c4ccc(C=C5c6ccccc6C=Cc6ccccc65)cc4)c(-c4ccc(C=C5c6ccccc6C=Cc6ccccc65)cc4)cc3-c3ccc(C=C4c5ccccc5C=Cc5ccccc54)cc3)cc2)c2ccccc21

absorption maximum (in ClC(Cl)Cl): 487 nm
Structure (SMILES): Cc1cccc(C)c1-c1cc2c(C)c3c4cc5nc6ccc7c8c(C)c9cc(-c%10c(C)cccc%10C)c(-c%10c(C)cccc%10C)cc9c(C)c8c7c6nc5cc4c3c(C)c2cc1-c1c(C)cccc1C

Structure (SMILES): COc1ccc(C2=C(c3ccc(C)cc3)C(c3ccccc3)=[N+]3C2=Nc2c(-c4ccc(OC)cc4)c(-c4ccc(C)cc4)c(-c4ccccc4)n2[B-]3(F)F)cc1
absorption maximum (in Cc1ccccc1): 656 nm

Structure (SMILES): COc1cc2c3cc(OC)c(OC)cc3c3cc4c(C)cc(=O)oc4cc3c2cc1OC
absorption maximum (in C1CCOC1): 366 nm
absorption maximum (in CO): 364 nm
absorption maximum (in CS(C)=O): 370 nm
absorption maximum (in Cc1ccccc1): 366 nm
absorption maximum (in ClC(Cl)Cl): 368 nm

absorption maximum (in CCO): 442 nm
Structure (SMILES): Nc1cc2nc3cc(Cl)c(Cl)cc3nc2cc1N

absorption maximum (in C1CCCCC1): 293 nm
Structure (SMILES): COc1ccc(-c2ccc(-c3ccc(OC)cc3)cc2)cc1

absorption maximum (in CS(C)=O): 441 nm
absorption maximum (in ClCCl): 442 nm
Structure (SMILES): O=c1oc2ccccc2c2c1c(=O)oc1cc(O)c3ccccc3c12

absorption maximum (in C1CCCCC1): 387 nm and 384 nm
absorption maximum (in CC#N): 388 nm
absorption maximum (in CC(C)O): 389 nm
absorption maximum (in CO): 389 nm
absorption maximum (in CS(C)=O): 396 nm
absorption maximum (in ClC(Cl)Cl): 383 nm
absorption maximum (in c1ccccc1): 392 nm
Structure (SMILES): CN(C)c1ccc2nc(-c3ccc(C(=O)Nc4ccccc4)cc3)sc2c1

absorption maximum (in C1CCCCC1): 269 nm
absorption maximum (in CC#N): 267 nm
absorption maximum (in CCO): 273 nm
absorption maximum (in CCOC(C)=O): 267 nm
absorption maximum (in O): 273 nm
Structure (SMILES): Cc1oc(-c2ccccc2)nc1C(=O)O

Structure (SMILES): C(=C\c1ccc(-c2ccc(/C=C/c3ccc(-n4c5ccccc5c5ccccc54)cc3)s2)s1)/c1ccc(-n2c3ccccc3c3ccccc32)cc1
absorption maximum (in Cc1ccccc1): 440.22 nm

absorption maximum (in CN(C)C=O): 523 nm
Structure (SMILES): CCCCCCCCCCCCN1C(=O)c2ccc3c4ccc5c6c(ccc(c7ccc(c2c37)C1=O)c64)C(=O)N(CCCCCCCCCCCC)C5=O

Structure (SMILES): Cc1csc2[n+]1[B-](F)(F)n1c(c3cccc4cccc1c43)=N2
absorption maximum (in C1CCOC1): 476 nm
absorption maximum (in CC#N): 470 nm
absorption maximum (in CCCCCC): 477 nm
absorption maximum (in Cc1ccccc1): 479 nm
absorption maximum (in ClCCl): 445 nm

absorption maximum (in CCCCCC): 540 nm
Structure (SMILES): CC(C)[Si](C#Cc1c2nsnc2c(C#C[Si](C(C)C)(C(C)C)C(C)C)c2nc3c(nc12)Cc1ccccc1-3)(C(C)C)C(C)C

Structure (SMILES): CNc1cccc2c1C(=O)c1ccccc1C2=O
absorption maximum (in C1CCC2CCCCC2C1): 488 nm
absorption maximum (in C1CCCCC1): 488 nm
absorption maximum (in CC1CCCCC1): 489 nm
absorption maximum (in CC#N): 501 nm
absorption maximum (in CCC(C)CC): 487 nm
absorption maximum (in CCCCCC): 487 nm
absorption maximum (in CCOC(C)=O): 497.5 nm

absorption maximum (in ClCCl): 412 nm
Structure (SMILES): O=P1(c2ccccc2)c2cccc3ccc4ccc1n4c23 (centres undefined)

Structure (SMILES): COc1ccc(C#Cc2nc3ccccc3nc2-c2cn(C)c3ccccc23)cc1
absorption maximum (in C1CCOC1): 408 nm
absorption maximum (in CC#N): 407 nm
absorption maximum (in CC(C)=O): 408 nm
absorption maximum (in CC(C)O): 415 nm
absorption maximum (in CCO): 415 nm
absorption maximum (in CCOC(C)=O): 405 nm
absorption maximum (in CO): 415 nm
absorption maximum (in Cc1ccccc1): 407 nm
absorption maximum (in ClCCl): 408 nm

absorption maximum (in CC#N): 473 nm
absorption maximum (in CCCCCC): 514 nm
absorption maximum (in CCOC(C)=O): 480 nm
absorption maximum (in CO): 479 nm
absorption maximum (in ClCCl): 486 nm
Structure (SMILES): F[B-]1(F)n2cccc2C(c2ccccc2)=C2C=CC(N3CCOCC3)=[N+]21

absorption maximum (in ClC(Cl)Cl): 357 nm
Structure (SMILES): COc1ccc(-c2nc(-c3ccccc3)c(N(c3ccccc3)c3ccccc3)s2)cc1

Structure (SMILES): CN(C)c1ccc(-c2cc(-c3ccc(C#N)cc3)nn2C)cc1
absorption maximum (in C1CCCCC1): 288 nm
absorption maximum (in CC#N): 292 nm
absorption maximum (in CCOC(C)=O): 290 nm
absorption maximum (in CCOCC): 289 nm
absorption maximum (in CN(C)C=O): 295 nm
absorption maximum (in Cc1ccccc1): 292 nm
absorption maximum (in ClCCl): 292 nm

absorption maximum (in C1COCCO1): 422 nm
Structure (SMILES): O=C1NC(c2ccccc2)=C/C1=C\c1ccccc1

absorption maximum (in C1CCCCC1): 455 nm
absorption maximum (in CC#N): 481 nm
absorption maximum (in CCO): 488 nm
absorption maximum (in c1ccccc1): 469 nm
Structure (SMILES): Nc1ccc2c(c1)C(=O)c1ccccc1-2

absorption maximum (in CC#N): 314 nm
absorption maximum (in CO): 313 nm
absorption maximum (in O): 309 nm
Structure (SMILES): CN1CCN(CCCN2c3ccccc3Sc3ccc(Cl)cc32)CC1
